Experiment [1] addresses T1, β-Glucocerebrosidase (GCase) (Homo sapiens, UniProt P04062).
T1 sequence (P04062 40-536): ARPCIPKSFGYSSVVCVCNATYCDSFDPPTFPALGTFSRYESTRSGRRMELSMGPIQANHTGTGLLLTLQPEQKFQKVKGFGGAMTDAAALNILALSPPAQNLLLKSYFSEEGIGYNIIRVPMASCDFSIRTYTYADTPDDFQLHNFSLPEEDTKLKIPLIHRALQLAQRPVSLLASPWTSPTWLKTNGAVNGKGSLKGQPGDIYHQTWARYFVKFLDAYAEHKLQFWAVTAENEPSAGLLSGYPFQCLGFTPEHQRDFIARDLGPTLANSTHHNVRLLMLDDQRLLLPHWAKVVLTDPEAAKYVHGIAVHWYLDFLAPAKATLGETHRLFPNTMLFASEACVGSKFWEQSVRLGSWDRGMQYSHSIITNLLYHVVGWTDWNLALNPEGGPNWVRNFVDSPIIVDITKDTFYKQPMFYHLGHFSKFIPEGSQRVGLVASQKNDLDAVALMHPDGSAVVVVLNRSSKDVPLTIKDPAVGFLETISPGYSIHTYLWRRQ
Kind of experiment: 4MU-β-Glc fluorescence enzyme assay. The format is biochemical.

Experiment [2] addresses T1, β-Glucocerebrosidase (GCase). Kind of experiment: X-ray crystal structure. The format is biochemical.

Take `c1cncc(-c2nc(NC3Cc4ccccc4C3)c3ccccc3n2)c1` [compound 3, JZ-4109]: in experiment [1], half-maximal inhibition (IC50) was put at 8 nM.

Consider `O=C(CCCCCCCCC#Cc1ccc2c(c1)CC(Nc1nc(-c3cccnc3)nc3ccccc13)C2)ON1C(=O)CCC1=O` (centres unmarked) [compound 4, JZ-5029], for which, in experiment [2], the IC50 (in general, the concentration needed to halve the response being measured) came to 56 nM.

These data come from paper PMC6098685 (Journal of the American Chemical Society, 2018).
